Key:
human MC1r [1] = target: T1, human MC1r (Homo sapiens, UniProt Q01726); assay: Test 3: receptor efficacy, cAMP enzyme immunoassay in stably transfected HEK cells expressing the human MC1r; type: cell-based; design: expressed in transfected cells; conditions: for Emax: HEK293, IBMX present, read-out: maximal efficacy Emax (max efficacy expressed as percent of αMSH); for EC50: IBMX present
Description: The immune modulating effects of melanocortins are mediated through MC1r and/or MC3r stimulation on immune competent cells in tissues, organs and plasma. MC1r and/or MC3r are expressed in immune competent cells including monocytes, macrophages, neutrophils t-cells and dendritic cells. Stimulation of the MCr1 and/or MC3r is associated with attenuation of cytokine production and activation of pro-resolving effects. The binding affinity and the receptor efficacy (alternative expression is potency) of a given melanocortin together, in some embodiments, makes up the overall efficacy of a given compound.
Alternatively MCR1 receptor efficacy was tested in stably transfected HEK cells expressing the human MC1r. Cells were grown in Dulbecco's modified Eagle's medium 1885 supplemented with 10% fetal calf serum, 2 mm glutamine, and 0.01 mg/ml gentamicin. The expression plasmids containing the cDNAs encoding the wild-type or the mutated receptors were expressed after transfection according to the calcium phosphate precipitation method. The cells were kept frozen until the experiments where the cells was grown in RPMI 1640 medium supplemented with 2 mm 1-glutamine adjusted to contain 1.5 g/liter sodium bicarbonate, 4.5 g/liter glucose, 10 mm HEPES, 1.0 mm sodium pyruvate, and 10% fetal bovine serum.
Cells (2.5×10^5 cells per well) were incubated for 15 min at 37° C. in 1 ml of freshly prepared binding buffer supplemented with 5.10-4 M of the non-specific phosphodiesterase inhibitor 3-Isobutyl-1-methylxanthine (IBMX), 40 μg/ml bacitracin, and various concentrations of test compound. After incubation, cells were placed on ice, medium was removed, and cells lysed. Measurement of cAMP in the samples was conducted by use of a commercial cAMP Enzyme Immunoassay kit from Cayman Chemicals (Cat. No 581001). All cAMP concentrations were expressed relative to the total number of cells in the individual samples.

human MC1r [2] = target: T1, human MC1r; assay: Test 2: receptor efficacy, cAMP production (HTRF) in CHO-K1 cells expressing MC1r; conditions: nM of cAMP, IBMX 1 mM
Description: CHO-Kl cells expressing either the MC1r or the MC3r grown in media without antibiotic were detached by gentle flushing with PBS-EDTA (5 mM EDTA), recovered by centrifugation and resuspended in assay buffer (KRH: 5 mM KCl, 1.25 mM MgSO4, 124 mM NaCl, 25 mM HEPES, 13.3 mM Glucose, 1.25 mM KH2PO4, 1.45 mM CaC12, 0.5 g/1 BSA).
12 μl of cells were mixed with 12 μl of the test compound at increasing concentrations in 96 wells plates and then incubated 30 min at room temperature. cAMP production was determined after addition of a lysis buffer and 1 hour incubation, by use of competitive immunoassay using cryptate-labeled anti-cAMP and d2-labeled cAMP (HTRF kit from CisBio) with Delta F percentage values calculated according to the manufacturer specification. Dose response curves were performed in parallel with test compounds, and reference compounds.
The HTRF technology is a titration assay based on a competition between labeled cAMP (exogenous) and cAMP produced by the cell after activation of the MCr. The dynamic range of the assay was 3-4 fold meaning that the linear range (which enables conversion from raw data to nM of cAMP) is within that range.
Data is presented as mean values.

[3] = test system: normal human lung fibroblasts (NHLF); conditions: TGFβ1-induced NHLF, at higher doses; U.S. provisional application 61/785,631; cited from earlier work

T1 sequence (Q01726 whole entry): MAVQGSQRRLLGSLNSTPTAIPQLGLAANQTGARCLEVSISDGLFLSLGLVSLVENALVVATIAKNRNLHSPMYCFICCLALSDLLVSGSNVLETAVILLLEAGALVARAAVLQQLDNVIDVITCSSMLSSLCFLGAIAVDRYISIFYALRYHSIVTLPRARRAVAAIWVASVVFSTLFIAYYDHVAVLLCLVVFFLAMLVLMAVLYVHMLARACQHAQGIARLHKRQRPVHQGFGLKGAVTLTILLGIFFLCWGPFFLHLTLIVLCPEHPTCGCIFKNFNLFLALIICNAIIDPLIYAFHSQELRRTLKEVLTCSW

Emax (human MC1r [1]) [%] | EC50 (human MC1r [1]) [nM] | maximal efficacy (Emax) (human MC1r [2]) [nM] | Molecule | effect on ECM collagen [3]
62 ± 8 | 1.35 | – | CCCC[C@H](NC(=O)[C@H](CO)NC(=O)[C@H](Cc1ccc(O)cc1)NC(=O)[C@H](CO)NC(=O)[C@H](CCCCN)NC(=O)[C@H](CCCCN)NC(=O)[C@H](CCCCN)NC(=O)[C@H](CCCCN)NC(=O)[C@H](CCCCN)NC(=O)[C@H](CCCCN)NC(C)=O)C(=O)N[C@@H](CCC(=O)O)C(=O)N[C@@H](Cc1c[nH]cn1)C(=O)N[C@H](Cc1ccccc1)C(=O)N[C@@H](CCCNC(=N)N)C(=O)N[C@@H](Cc1c[nH]c2ccccc12)C(=O)NCC(=O)N[C@@H](CCCCN)C(=O)N1CCC[C@H]1C(=O)N[C@H](C(N)=O)C(C)C [Ac(Lys)6-NDP-αMSH, Ac(Lys)6-Ser-Tyr-Ser-Nle Glu-His-(D-Phe)-Arg-Trp-Gly-Lys-Pro-Val-NH2] | –
72 ± 5 | 2.12 | ~3 | CSCC[C@H](NC(=O)[C@H](CO)NC(=O)[C@H](Cc1ccc(O)cc1)NC(=O)[C@H](CO)NC(=O)[C@H](CCCCN)NC(=O)[C@H](CCCCN)NC(=O)[C@H](CCCCN)NC(=O)[C@H](CCCCN)NC(=O)[C@H](CCCCN)NC(=O)[C@H](CCCCN)NC(C)=O)C(=O)N[C@@H](CCC(=O)O)C(=O)N[C@@H](Cc1c[nH]cn1)C(=O)N[C@@H](Cc1ccccc1)C(=O)N[C@@H](CCCNC(=N)N)C(=O)N[C@@H](Cc1c[nH]c2ccccc12)C(=O)NCC(=O)N[C@@H](CCCCN)C(=O)N1CCC[C@H]1C(=O)N[C@H](C(N)=O)C(C)C [Ac(Lys)6-αMSH] | –
– | – | ~3 | CSCC[C@H](NC(=O)[C@H](CO)NC(=O)[C@H](Cc1ccc(O)cc1)NC(=O)[C@H](CO)NC(=O)[C@H](CCCCNC(=O)[C@H](CCCCN)NC(=O)[C@H](CCCCN)NC(C)=O)NC(C)=O)C(=O)N[C@@H](CCC(=O)O)C(=O)N[C@@H](Cc1c[nH]cn1)C(=O)N[C@@H](Cc1ccccc1)C(=O)N[C@@H](CCCNC(=N)N)C(=O)N[C@@H](Cc1c[nH]c2ccccc12)C(=O)NCC(=O)N[C@@H](CCCCN)C(=O)N1CCC[C@H]1C(=O)N[C@H](C(N)=O)C(C)C [α-MSH analogue #1] | –
– | – | – | ACTH: Adrenocorticotropic hormone, the native ligand to the type 2 receptor (MC2r) (SYSMEHFRWGKPVGKKRRPVKVYPNGAEDESAEAFPLEF; Corticotropin; UniProt P01189 138-176, looked up) | statistically significant reduction in ECM collagen
